Assay results as given in US8921318B2, “Application of initial doses of LHRH analogues and maintenance doses of LHRH antagonists for the treatment of hormone-dependent cancers and corresponding pharmaceutical kits” (Aeterna Zentaris GmbH, priority 2006, dated 2014).

What was measured:
[1] = tested on: testosterone levels; test: Testosterone levels in prostate cancer patients under initial dose / maintenance dose treatment; format: in vivo, human; settings: for testosterone levels during first period: prostate cancer patients
Description: (§1) 130 mg ozarelix is given as a single monthly initial dose per i.m. injection every 4 weeks to patients suffering from prostate cancer for a first period of 3 months. […] Subsequently, patients are treated with single monthly maintenance doses of 30 mg ozarelix given per i.m. injection over a period of 6 months. […] The treatment scheme is then repeated continuously (chronic treatment).
(§2) 200 mg ozarelix is given as a single initial dose per i.m. injection once every 3 months to patients suffering from prostate cancer for a first period of 3 to 6 months. […] Subsequently, patients are treated with single monthly maintenance doses of 40 mg ozarelix given per i.m. injection over a period of 6 months. […] The treatment scheme is then repeated continuously (chronic treatment).
(§3) 3.75 mg leuprorelin (leuprolide) are given as a single monthly initial dose per i.m. injection every 4 weeks to patients suffering from prostate cancer for a first period of 6 months. […] Subsequently, patients are treated with single monthly maintenance doses of 20 mg ozarelix given per i.m. injection over a period of 9 months. […] The treatment scheme is then repeated continuously (chronic treatment).
(§4) 11.25 mg leuprorelin (leuprolide) are given as a single initial dose per i.m. injection once every three months to patients suffering from prostate cancer for a first period of 3 months. […] Subsequently, patients are treated with single monthly maintenance doses of 50 mg ozarelix given per i.m. injection over a period of 3 months. […] The treatment scheme is then repeated continuously (chronic treatment).

[2] = tested on: Prostate Specific Antigen (PSA); test: PSA levels in prostate cancer patients under initial dose / maintenance dose treatment; format: in vivo, human; settings: for PSA levels decrease during first period: prostate cancer patients
Description: as §1, §2, §3, §4

[3] = Example 3: 3.75 mg leuprorelin i.m. single monthly initial dose every 4 weeks, first period 6 months
[4] = Example 4: 11.25 mg leuprorelin i.m. single initial dose once every three months, first period 3 months
[5] = Example 1: 130 mg ozarelix i.m. single monthly initial dose every 4 weeks, first period 3 months
[6] = Example 1: monthly maintenance doses of 30 mg ozarelix i.m. over 6 months, after 130 mg ozarelix initial doses
[7] = Example 2: 200 mg ozarelix i.m. single initial dose once every 3 months, first period 3 to 6 months
[8] = Example 2: monthly maintenance doses of 40 mg ozarelix i.m. over 6 months, after 200 mg ozarelix initial doses
[9] = Example 3: monthly maintenance doses of 20 mg ozarelix i.m. over 9 months, after 3.75 mg leuprorelin initial doses
[10] = Example 4: monthly maintenance doses of 50 mg ozarelix i.m. over 3 months, after 11.25 mg leuprorelin initial dose

## CCNC(=O)[C@@H]1CCCN1C(=O)[C@H](CCCNC(=N)N)NC(=O)[C@H](CC(C)C)NC(=O)[C@@H](CC(C)C)NC(=O)[C@H](Cc1ccc(O)cc1)NC(=O)[C@H](CO)NC(=O)[C@H](Cc1c[nH]c2ccccc12)NC(=O)[C@H](Cc1c[nH]cn1)NC(=O)[C@@H]1CCC(=O)N1 [leuprorelin]
[1]; [3]
  testosterone levels during first period: quickly reach castration level
[1]; [4]
  testosterone levels during first period: quickly reach castration level
[2]; [3]
  PSA levels decrease during first period: up to 95%
[2]; [4]
  PSA levels decrease during first period: up to 95%

## ozarelix
[1]; [5]
  testosterone levels during first period: quickly reach castration level
[1]; [6]
  testosterone levels during second period: above 0.5 ng/mL
[1]; [7]
  testosterone levels during first period: quickly reach castration level
[1]; [8]
  testosterone levels during second period: above 0.5 ng/mL
[1]; [9]
  testosterone levels during second period: above 0.5 ng/mL
[1]; [10]
  testosterone levels during second period: above 0.5 ng/mL
[2]; [5]
  PSA levels decrease during first period: up to 95%
[2]; [6]
  PSA levels during second period: remain stably low until the end of the second period
[2]; [7]
  PSA levels decrease during first period: up to 95%
[2]; [8]
  PSA levels during second period: remain stably low until the end of the second period
[2]; [9]
  PSA levels during second period: remain stably low until the end of the second period
[2]; [10]
  PSA levels during second period: remain stably low until the end of the second period
